The source of these data is US8183262B2, “Pyridine derivatives as mGluR2 antagonists” (Hoffmann-La Roche Inc., priority 2007, dated 2012).

The structures appear in SMILES notation. Bounds are passed on as bounds.

In one data set the target is T1, rat mGlu2 receptor (Rattus norvegicus, UniProt P31421).
T1 construct: expressed in transfected cells; membranes prepared
Put plainly: [3H]-LY354740 binding on mGlu2 transfected CHO cell membranes. The note with it: inhibition of 10 nM [3H]-LY354740 binding, membranes of CHO cells transfected with rat mGlu2, room temperature, 1 hour. The source says:
[^3H]-LY354740 Binding on mGlu2 Transfected CHO Cell Membranes. Transfection and Cell Culture
cDNA encoding the rat mGlu2 receptor protein in pBluescript II was subcloned into the eukaryotic expression vector pcDNA I-amp from Invitrogen Ltd (Paisley, UK). This vector construct (pcD1mGR2) was co-transfected with a psvNeo plasmid encoding the gene for neomycin resistance, into CHO cells by a modified calcium phosphate method described by Chen & Okayama (1988). The cells were maintained in Dulbecco's Modified Eagle medium with reduced L-glutamine (1 mM final concentration), 36 mg/L L-Proline and 10% dialysed foetal calf serum from Gibco-Invitrogen; the medium was supplemented with 500 microM α-methyl-4-carboxyphenylglycine (MCPG). Selection was made in the presence of G-418 (300 ug/ml final concentration). Clones were identified by reverse transcription of 5 μg total RNA, followed by PCR using mGlu2 receptor specific primers 5′-[…]-3′ and 5′-[…]-3′ in 60 mM Tris HCl (pH 10), 15 mM (NH4)2SO4, 2 mM MgCl2, 25 units/ml Taq Polymerase with 30 cycles annealing at 60° C. for 1 min., extention at 72° C. for 30 s, and 1 min. 95° C. denaturation.
Cells, cultured as above, were harvested and washed three times with cold PBS and frozen at −80° C. The pellet was resuspended in cold 20 mM HEPES-NaOH buffer containing 10 mM EDTA (pH 7.4), and homogenised with a polytron (Kinematica, A G, Littau, Switzerland) for 10 s at 10 000 rpm. After centrifugation for 30 min. at 4° C., the pellet was washed once with cold 20 mM HEPES-NaOH buffer containing 0.1 mM EDTA, (pH 7.4). After a second centrifugation for 30 min. at 4° C. the pellet was resuspended in cold 20 mM HEPES-NaOH buffer containing 0.1 mM EDTA, (pH 7.4). Protein content was measured using the Micro BCA method from Pierce-Perbio (Rockford, Ill., USA) using bovine serum albumin as standard.
After thawing, the membranes were resuspended in cold 50 mM Tris-HCl buffer containing 2 mM MgCl2 (pH 7.4) (binding buffer). The final concentration of the membranes in the assays was 25 μg protein/ml. Inhibition experiments were performed with membranes incubated with 10 nM [^3H]-LY354740 at room temperature, for 1 hour, in presence of various concentrations of the compound to be tested. Following the incubations, membranes were filtered onto Whatmann GF/B glass fiber filters or onto GF/B Unifilter plates and washed 5 times with cold binding buffer. Non specific binding was measured in the presence of 10 μM (2S,2′R,3′R)-2-(2′3′-Dicarboxycyclopropyl)glycine (DCG IV from Tocris, Ellisville, Mo. USA). After transfer of the filters into plastic vials containing 10 ml of Ultima-gold scintillation fluid from Perkin-Elmer (Boston, Mass., USA), the radioactivity was measured by liquid scintillation in a Tri-Carb 2500 TR counter (Packard, Zürich, Switzerland). For 96-Unifilter plates the radioactivity was measured after addition of Microscint 40 scintillation fluid (Perkin Elmer, Boston Mass.) using a TopCount NXT (Packard)
The inhibition curves were fitted with a four parameter logistic equation giving IC50 values, and Hill coefficients.

T1 sequence (P31421 19-872): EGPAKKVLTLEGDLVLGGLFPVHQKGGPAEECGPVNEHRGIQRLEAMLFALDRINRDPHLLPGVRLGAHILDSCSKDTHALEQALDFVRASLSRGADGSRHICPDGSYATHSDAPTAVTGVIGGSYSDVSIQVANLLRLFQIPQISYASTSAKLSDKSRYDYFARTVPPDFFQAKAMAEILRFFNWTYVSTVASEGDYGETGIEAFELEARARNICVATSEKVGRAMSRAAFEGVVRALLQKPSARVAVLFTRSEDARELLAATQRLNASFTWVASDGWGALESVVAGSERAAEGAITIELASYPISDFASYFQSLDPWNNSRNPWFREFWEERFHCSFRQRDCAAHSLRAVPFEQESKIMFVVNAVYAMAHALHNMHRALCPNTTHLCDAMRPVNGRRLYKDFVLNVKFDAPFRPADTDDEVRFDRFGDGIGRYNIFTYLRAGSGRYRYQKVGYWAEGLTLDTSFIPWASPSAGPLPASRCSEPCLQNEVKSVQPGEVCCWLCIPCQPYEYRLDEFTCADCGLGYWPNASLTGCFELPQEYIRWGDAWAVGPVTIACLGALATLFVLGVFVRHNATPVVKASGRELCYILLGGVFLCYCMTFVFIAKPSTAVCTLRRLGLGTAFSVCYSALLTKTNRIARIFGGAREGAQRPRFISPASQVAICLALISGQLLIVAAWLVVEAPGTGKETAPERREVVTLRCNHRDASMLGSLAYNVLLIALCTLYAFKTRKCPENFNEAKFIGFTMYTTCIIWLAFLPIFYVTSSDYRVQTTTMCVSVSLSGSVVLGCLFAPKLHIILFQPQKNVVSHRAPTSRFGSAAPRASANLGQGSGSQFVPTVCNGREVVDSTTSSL

Molecule `FC(F)(F)c1ccc(-c2cc(C(F)(F)F)nc(-n3cnc(-c4cccnc4)c3)n2)cc1` [Example 5, 2-(4-Pyridin-3-yl-imidazol-1-yl)-4-trifluoromethyl-6-(4-trifluoromethyl-phenyl)-pyrimidine] came in with a melting point of 200.5 °C. On rat mGlu2 receptor, this molecule gave a Ki of 47 nM.
In the same order, the values of `CCOc1cc(-c2cc(C(F)(F)F)nc(-c3ccnc(-c4cccc(S(N)(=O)=O)c4)c3)n2)ccc1C(F)(F)F` [Example 452, 3-{4-[4-(3-Ethoxy-4-trifluoromethyl-phenyl)-6-trifluoromethyl-pyrimidin-2-yl]-pyridin-2-yl}-benzenesulfonamide] are 223.5 °C and 16 nM.
As for `Nc1ccc(-c2cn(-c3cc(C(F)(F)F)cc(-c4ccc(Cl)cc4)n3)cn2)cn1` [Example 56, 5-{1-[6-(4-Chloro-phenyl)-4-trifluoromethyl-pyridin-2-yl]-1H-imidazol-4-yl}-pyridin-2-ylamine], the melting point was 196 °C (dec.). Besides, affinity on rat mGlu2 receptor was put at a Ki of 9 nM.
`Cc1cc(-c2ccc(C(F)(F)F)cc2)cc(-c2cccc(-c3cnc(N)nc3)c2)n1` [Example 70, 5-{3-[6-Methyl-4-(4-trifluoromethyl-phenyl)-pyridin-2-yl]-phenyl}-pyrimidin-2-ylamine] gave a melting point of 215 to 217 °C. Further, the affinity at rat mGlu2 receptor corresponds to a Ki of 44 nM.
`Cc1cc(-c2ccc(C(F)(F)F)cc2)cc(-c2ccnc(-c3cccc(S(C)(=O)=O)c3)n2)n1` [Example 355, 2-(3-Methanesulfonyl-phenyl)-4-[6-methyl-4-(4-trifluoromethyl-phenyl)-pyridin-2-yl]-pyrimidine]: the melting point turned out to be 208 °C. Moreover, on rat mGlu2 receptor, the Ki came out at 1 nM.
On to `Cc1cc(-c2ccc(C(F)(F)F)cc2)cc(-c2cccc(-c3cnc(N)nc3)n2)n1` [Example 72, 5-[6′-Methyl-4′-(4-trifluoromethyl-phenyl)-[2,2′]bipyridinyl-6-yl]-pyrimidin-2-ylamine], for which the melting point lay in the range of 219 to 222 °C. In addition, the inhibition constant (Ki) at rat mGlu2 receptor is 56 nM.
The molecule `CC(C)(C)NS(=O)(=O)c1cccc(-c2cccc(-c3nc(-c4ccc(C(F)(F)F)cc4)cc(C(F)(F)F)n3)c2)c1` [Example 155, 3′-[4-Trifluoromethyl-6-(4-trifluoromethyl-phenyl)-pyrimidin-2-yl]-biphenyl-3-sulfonic acid tert-butylamide] displayed a melting point of 200 °C. In addition, the Ki on rat mGlu2 receptor is 8.4 nM.
On the same counts, the results for `Cc1cn(-c2cccc(-c3cc(-c4ccc(C(F)(F)F)cc4)cc(C)n3)c2)cn1` [Example 227, 2-Methyl-6-[3-(4-methyl-imidazol-1-yl)-phenyl]-4-(4-trifluoromethyl-phenyl)-pyridine] are 126 to 132 °C and 34 nM.
On the same counts, the results for `FC(F)(F)c1ccc(-c2cc(C(F)(F)F)nc(-c3cccc(-c4cccnc4)c3)n2)cc1` [Example 33, 2-(3-Pyridin-3-yl-phenyl)-4-trifluoromethyl-6-(4-trifluoromethyl-phenyl)-pyrimidine] are 194 °C and 17 nM.
For `Cc1cc(-c2ccc(C(F)(F)F)cc2)cc(-c2cccc(-c3cccc(S(=O)(=O)NCC(F)(F)F)c3)n2)n1` [Example 445, 3-[6′-Methyl-4′-(4-trifluoromethyl-phenyl)-[2,2′]bipyridinyl-6-yl]-N-(2,2,2-trifluoro-ethyl)-benzenesulfonamide], the melting point worked out at 198 °C. This molecule registered a Ki on rat mGlu2 receptor of 3 nM.
On the same counts, the results for `Cc1cc(-c2ccc(C(F)(F)F)cc2)cc(-c2ccnc(-c3cccc(S(=O)(=O)N4CCN(C)CC4)c3)c2)n1` [Example 350, 6-Methyl-2′-[3-(4-methyl-piperazine-1-sulfonyl)-phenyl]-4-(4-trifluoromethyl-phenyl)-[2,4′]bipyridinyl] are 180 °C (dec.) and 22 nM.
In the same order, the values of `Cc1cc(-c2ccc(C(F)(F)F)cc2)nc(-c2cccc(-c3cccc(S(N)(=O)=O)c3)c2)c1` [Example 274, 3′-[4-Methyl-6-(4-trifluoromethyl-phenyl)-pyridin-2-yl]-biphenyl-3-sulfonic acid amide] are 200 °C and 4 nM.
In the same order, the values of `Nc1ccc(-c2cn(-c3nc(-c4ccc(F)c(F)c4)cc(C(F)(F)F)n3)cn2)cn1` [Example 384, 5-{1-[4-(3,4-Difluoro-phenyl)-6-trifluoromethyl-pyrimidin-2-yl]-1H-imidazol-4-yl}-pyridin-2-ylamine] are 232 °C and 32 nM.
In turn, `Cc1cc(-c2ccc(C(F)(F)F)cc2)cc(-c2cccc(-c3ccc(N)nc3)n2)n1` [Example 71, 6-Methyl-4-(4-trifluoromethyl-phenyl)-[2,2′;6′,3″]terpyridin-6″-ylamine] yielded a melting point of 208 to 211 °C. At rat mGlu2 receptor, this molecule returned a Ki of 1 nM.
In the case of `Cc1cc(-c2ccc(C(F)(F)F)cc2)nc(-c2cccc(-c3ccc(S(=O)(=O)NC(C)(C)C)s3)c2)c1` [Example 272, 5-{3-[4-Methyl-6-(4-trifluoromethyl-phenyl)-pyridin-2-yl]-phenyl}-thiophene-2-sulfonic acid tert-butylamide], the melting point is 156 °C. At rat mGlu2 receptor, this molecule displayed a Ki of 80 nM.
On the same counts, the results for `Cc1cc(-c2ccc(C(F)(F)F)cc2)cc(-c2cccc(-c3cccc(S(C)(=O)=O)c3)n2)n1` [Example 356, 6′-(3-Methanesulfonyl-phenyl)-6-methyl-4-(4-trifluoromethyl-phenyl)-[2,2′]bipyridinyl] are 186 °C and 1 nM.
In the same order, the values of `NS(=O)(=O)c1ccc(-c2noc(-c3nc(-c4ccc(C(F)(F)F)cc4)cc(C(F)F)n3)n2)cc1` [Example 35, 4-{5-[4-Difluoromethyl-6-(4-trifluoromethyl-phenyl)-pyrimidin-2-yl]-[1,2,4]oxadiazol-3-yl}-benzenesulfonamide] are 307 °C and 31 nM.
On the same counts, the results for `Cc1nc(-c2cn(-c3cc(C(F)(F)F)cc(-c4ccc(C(F)(F)F)cc4)n3)cn2)sc1S(=O)(=O)NC(C)(C)C` [Example 292, 4-Methyl-2-{1-[4-trifluoromethyl-6-(4-trifluoromethyl-phenyl)-pyridin-2-yl]-1H-imidazol-4-yl}-thiazole-5-sulfonic acid tert-butylamide] are greater than 250 °C and 28 nM.
As for `FC(F)(F)c1cc(-c2ccc(Cl)cc2)nc(-c2cccc(-c3cccnc3)c2)n1` [Example 34, 4-(4-Chloro-phenyl)-2-(3-pyridin-3-yl-phenyl)-6-trifluoromethyl-pyrimidine], the melting point is 162 °C. For the same molecule, on rat mGlu2 receptor, the Ki was determined as 47 nM.
In the same order, the values of `Nc1cc(-c2noc(-c3nc(-c4ccc(Cl)cc4)cc(C(F)(F)F)n3)n2)ccn1` [Example 8, 4-{5-[4-(4-Chloro-phenyl)-6-trifluoromethyl-pyrimidin-2-yl]-[1,2,4]oxadiazol-3-yl}-pyridin-2-ylamine] are 223.5 °C and 100 nM.
On the same counts, the results for `O=S(=O)(c1cccc(-c2cc(-c3nc(-c4ccc(C(F)(F)F)cc4)cc(C(F)(F)F)n3)ccn2)c1)N1CCOCC1` [Example 377, 4-(3-{4-[4-Trifluoromethyl-6-(4-trifluoromethyl-phenyl)-pyrimidin-2-yl]-pyridin-2-yl}-benzenesulfonyl)-morpholine] are 202 °C and 7 nM.
With `CS(=O)(=O)c1cccc(-c2cc(-c3nc(-c4ccc(C(F)(F)F)cc4)cc(C(F)(F)F)n3)ccn2)c1` [Example 218, 2-[2-(3-Methanesulfonyl-phenyl)-pyridin-4-yl]-4-trifluoromethyl-6-(4-trifluoromethyl-phenyl)-pyrimidine], the melting point is 238.5 °C. Further, the affinity at rat mGlu2 receptor, expressed as Ki, was 3 nM.
